Experimental data reported in patent publication US5767116A, “Bicyclic aromatic compounds as therapeutic agents” (Knoll Atkiengesellschaft, priority 1993, dated 1998).
Structures can show the parent of a compound that is named as a salt. Where two headings read alike, the source gives them in different places.

Key:
5-HT1A receptors = target: T1, 5-HT1A receptors (Rattus norvegicus, UniProt P19327); test: biochemical; type: binding, rat (male Charles River CD); conditions: for Ki: 25° C., 30 minutes
T1 sequence (P19327 1-422): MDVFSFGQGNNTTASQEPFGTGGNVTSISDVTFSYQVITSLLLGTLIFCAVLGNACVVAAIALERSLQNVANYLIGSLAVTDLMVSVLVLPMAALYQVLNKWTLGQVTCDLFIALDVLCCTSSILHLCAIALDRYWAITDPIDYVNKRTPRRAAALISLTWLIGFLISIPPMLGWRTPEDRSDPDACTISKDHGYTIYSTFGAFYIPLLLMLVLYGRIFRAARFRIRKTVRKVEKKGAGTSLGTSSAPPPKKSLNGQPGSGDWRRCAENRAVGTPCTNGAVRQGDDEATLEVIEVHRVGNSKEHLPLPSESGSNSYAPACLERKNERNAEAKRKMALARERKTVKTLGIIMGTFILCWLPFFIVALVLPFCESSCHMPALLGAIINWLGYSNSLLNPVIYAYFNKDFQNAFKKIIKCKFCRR
Procedure: The pellet was rehomogenised in the same buffer, incubated at 37° C. for 10 minutes and centrifuged at 30,000 g at 4° C. for 10 minutes. […] Aliquots (400 μl; equivalent to 2.5 mg wet weight of tissue/tube) of this suspension were added to tubes containing the ligand (50 μl; 2 nM) and distilled water (50 μl; total binding) or 5-HT (50 μl; 10 µM; non-specific binding) or test compound (50 μl; at a single concentration of 10^-6 M or at 10 concentrations ranging from 10^-11 -10^-3 M). The ligand was [^3 H]8-hydroxy-2-(dipropylamino)tetralin([^3 H]8-OH-DPAT) and the mixture was incubated at 25° C. for 30 minutes before the incubation was terminated by rapid filtration.
(§1) The filters were punched out into vials, scintillation fluid added and radioactivity determined by liquid scintillation counting. The percentage displacement of specific binding of the tritiated ligand was calculated for the single concentration (10^-6 M) of test compound. Displacement curves were then produced for those compounds which displaced ≥50% of specific binding of the tritiated ligand at 10^-6 M using a range of concentrations of the compound. […] The inhibition coefficient Ki was then calculated using the formula [formula] in which [ligand] is the concentration of the tritiated ligand used and KD is the equilibrium dissociation constant for the ligand.

D2 dopamine receptors = D2 dopamine receptors (Rattus norvegicus, UniProt P61169); test: biochemical; type: binding, rat (male Charles River CD); conditions: rat striatal tissue, tritiated (S)-sulpiride; for Ki: 4° C., 40 minutes
Sequence of D2 dopamine receptors (P61169 whole entry): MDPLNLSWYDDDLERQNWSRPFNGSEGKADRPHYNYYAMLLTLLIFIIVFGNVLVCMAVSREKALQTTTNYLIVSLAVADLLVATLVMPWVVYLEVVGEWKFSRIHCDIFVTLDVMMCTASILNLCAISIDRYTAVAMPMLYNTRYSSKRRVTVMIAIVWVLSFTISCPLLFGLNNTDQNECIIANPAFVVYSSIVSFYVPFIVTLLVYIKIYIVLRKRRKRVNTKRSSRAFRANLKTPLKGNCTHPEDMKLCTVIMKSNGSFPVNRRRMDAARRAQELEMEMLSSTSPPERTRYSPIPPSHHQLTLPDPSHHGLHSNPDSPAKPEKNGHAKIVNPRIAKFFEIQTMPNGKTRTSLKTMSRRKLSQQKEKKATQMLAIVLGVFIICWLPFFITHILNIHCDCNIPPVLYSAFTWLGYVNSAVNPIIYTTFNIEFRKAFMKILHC

α1-adrenoceptors = test: inhibition of tritiated ligand ([7-methoxy-^3 H]prazosin) binding to α1-adrenoceptors in vitro (whole cortical tissue); set-up: species or system rat (male Charles River CD); conditions: rat whole cortical tissue; for Ki: 30° C., 30 minutes, > from highest concentration which displaced ≤50% of the ligand; for % displacement at 10^-6 M, α1: 30 min, 1 µM
Procedure: The supernatant was centrifuged at 30,000 g at 4° C. for 10 minutes. […] Aliquots (400 μl; equivalent to 5 mg wet weight of tissue/tube) of this suspension were added to tubes containing the ligand (50 μl; 0.1 nM) and distilled water (50 μl; total binding) or phentolamine (50 μl; 5 μM; non-specific binding) or test compound (50 μl; at a single concentration of 10^-6 M or at 10 concentrations ranging from 10^-11 -10^-3 M). The ligand was [7-methoxy-^3 H]prazosin and the mixture was incubated at 30° C. for 30 minutes before the incubation was terminated by rapid filtration.
as §1

α2-adrenoceptors = target: T2, α2-adrenoceptors (Rattus norvegicus, UniProt P22909); test: inhibition of tritiated ligand (tritiated idazoxan) binding to α2-adrenoceptors in vitro (frontal cortical tissue); set-up: species or system rat (male Charles River CD); conditions: for Ki: 0° C., 75 minutes, > from highest concentration which displaced ≤50% of the ligand
T2 sequence (P22909 1-465): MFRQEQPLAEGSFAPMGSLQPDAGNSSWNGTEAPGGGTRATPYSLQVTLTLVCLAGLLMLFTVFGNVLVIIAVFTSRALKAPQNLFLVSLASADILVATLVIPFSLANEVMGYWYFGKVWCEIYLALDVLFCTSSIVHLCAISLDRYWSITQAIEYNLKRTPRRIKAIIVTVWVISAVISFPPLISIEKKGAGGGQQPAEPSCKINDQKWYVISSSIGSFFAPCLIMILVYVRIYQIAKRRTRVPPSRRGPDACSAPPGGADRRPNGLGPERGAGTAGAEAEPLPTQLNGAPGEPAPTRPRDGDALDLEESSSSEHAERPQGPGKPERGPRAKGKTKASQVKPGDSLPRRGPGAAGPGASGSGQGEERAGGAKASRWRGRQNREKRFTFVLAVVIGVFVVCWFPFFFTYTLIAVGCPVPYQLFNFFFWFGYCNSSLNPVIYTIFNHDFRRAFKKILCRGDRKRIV
Procedure: Frontal cortical tissue from the brains of male Charles River CD rats weighing between 150-250 g were homogenised in ice-cold 0.25M sucrose (1:30 w/v) and centrifuged at 1,000 g at 4° C. for 12 minutes. The supernatant was stored on ice and the pellet was rehomogenised in 0.25M sucrose (1:15 w/v) and centrifuged at 850 g at 4° C. for 12 minutes. Combined supernatants were diluted with 5 mM Tris-HCl (pH 7.5) containing 0.5M ethylenediamine tetraacetic acid (EDTA) readjusted to pH 7.5 (at 25° C.) with 1M sodium hydroxide to 1:80 w/v, and centrifuged at 30,000 g at 4° C. for 10 minutes. The resulting pellet was resuspended in 5 mM Tris-HCl (pH 7.5) containing 5.68 mM L-ascorbic acid and 5 mM EDTA readjusted to pH 7.5 (at 25° C.) with 1M sodium hydroxide, and centrifuged at 30,000 g for 10 minutes. The final pellet was resuspended in 50 mM Tris-HCl (pH 7.5) containing 5.68 mM L-ascorbic acid and 5 mM EDTA (equivalent to 12.5 mg wet weight of tissue/ml) and used immediately in the binding assay. Aliquots (400 μl; equivalent to 5 mg wet weight of tissue/tube) of this suspension were added to tubes containing the ligand (50 μl; 1 nM) and distilled water (50 μl; total binding) or phentolamine (50 μl; 5 μM; non-specificbinding) or test compound (50 μl; at a single concentration of 10^-6 M or at 10 concentrations ranging from 10^-11 -10^-3 M). The ligand was tritiated idazoxan ((1,4-[6,7(n)-^3 H]benzodioxan-2-yl)-2-imidazoline hydrochloride) and the mixture was incubated at 0° C. for 75 minutes before the incubation was terminated by rapid filtration.
as §1, with “The filters were washed with ice-cold Tris-HCl buffer and dried. The filters” for “The filters”

[1] = 10^-6 M, rat hippocampal tissue, [^3 H]8-OH-DPAT, read-out: % displacement at 10^-6 M, 5-HT1A
[2] = rat frontal cortical tissue, tritiated idazoxan
[3] = read-out: % displacement at 10^-6 M, 5-HT1A, 10^-6 M, rat hippocampal tissue, [^3 H]8-OH-DPAT
[4] = read-out: % displacement at 10^-6 M, α2, 10^-6 M, rat frontal cortical tissue, tritiated idazoxan
[5] = 10^-6 M, rat frontal cortical tissue, tritiated idazoxan, read-out: % displacement at 10^-6 M, α2
[6] = rat hippocampal tissue, [^3 H]8-OH-DPAT

inhibition at 1 µM (5-HT1A receptors; [1]) [%]	Ki (α1-adrenoceptors) [nM]	Ki (α2-adrenoceptors; [2]) [nM]	Compound	inhibition at 1 µM (5-HT1A receptors; [3]) [%]	% displacement at 10^-6 M, α1 (α1-adrenoceptors) [%]	inhibition at 1 µM (α2-adrenoceptors; [4]) [%]	other results
74	> 500	> 500	COc1ccccc1N1CCC(CNCC2COc3cc(Cl)c(Cl)cc3O2)CC1 (stereo not shown) [Example 21, N-(6,7-dichloro-1,4-benzodioxan-2-ylmethyl)-1-[1-(2-methoxyphenyl)piperid-4-yl]methylaminehydrochloride]	–	–	–	inhibition at 1 µM (D2 dopamine receptors; 10^-6 M, read-out: % displacement at 10^-6 M, D2): 104%
–	–	–	Cl.Cl.c1ccc(N2CCC(CNCC3COc4ccccc4O3)CC2)cc1 (stereo not shown) [Example 12, N-(1,4-benzodioxan-2-ylmethyl)-1-(1-phenylpiperid-4-yl)methylamine dihydrochloride]	97	89	66	–
96	–	–	COc1ccccc1N1CCC(CNC[C@H]2COc3ccccc3O2)CC1 [Example 7, (S)-(-)-N-(1,4-benzodioxan-2-ylmethyl)-1-[1-(2-methoxyphenyl)-piperid-4-yl]methylamine]	–	94	–	inhibition at 1 µM (α2-adrenoceptors; [5]): 72%
–	339	> 500	Oc1cccc2c1CC(CNCC1CCN(c3ncccn3)CC1)CC2 (stereo not shown) [Example 10, 7-{N-[1-(pyrimidin-2-yl)piperid-4-ylmethyl}-aminomethyl)-5,6,7,8-tetrahydronaphth-1-ol dihydrobromide]	–	–	–	Ki (5-HT1A receptors; [6]): 7.7 nM; Ki (D2 dopamine receptors): 310 nM
–	31	> 500	COc1cccc2c1CC(CNCC1CCN(c3ncccn3)CC1)CO2 (stereo not shown) [Example 11, N-(5-methoxy-3,4-dihydro-2H-1-benzopyran-3-ylmethyl)-1-(1-(pyrimidin-2-yl)piperid-4-yl]methylamine monofumarate]	–	–	–	Ki (5-HT1A receptors; [6]): 14.7 nM; Ki (D2 dopamine receptors): 12.9 nM
–	14	70	FC(F)(F)c1cccnc1NCCNCC1COc2ccccc2O1 (stereo not shown) [Example 8, N-(1,4-benzodioxan-2-ylmethyl)-N'-[3-(trifluoromethyl)-2-pyridyl)]-ethanediamine dihydrochloride]	–	–	–	Ki (5-HT1A receptors; [6]): 18.8 nM; Ki (D2 dopamine receptors): 110 nM
–	–	–	COc1ccc(N2CCC(CNCC3COc4ccccc4O3)CC2)cc1.Cl.Cl (stereo not shown) [Example 16, N-(1,4-benzodioxan-2-ylmethyl)-1-[1-(4-methoxyphenyl)piperid-4-yl]methylamine dihydrochloride]	98	94	64	–
87	–	> 500	COc1ccccc1N1CCC(CNC[C@@H]2COc3ccccc3O2)CC1 [Example 14, (R)-(+)-N-(1,4-benzodioxan-2-ylmethyl)-1-[1-(2-methoxyphenyl)piperid-4-yl]methylamine]	–	57	–	–
94	> 500	> 500	COc1ccccc1N1CCC(CNCC2COc3cccc(O)c3O2)CC1 (stereo not shown) [Example 28, N-(8-hydroxy-1,4-benzodioxan-2-ylmethyl) -1-[1-(2-methoxyphenyl)piperid-4-yl]methylamine]	–	–	–	–
–	–	–	COc1ccccc1NCC1CCN(CC2COc3ccccc3O2)CC1.O=C(O)C(=O)O (stereo not shown) [Example 15, 1-[1-(1,4-benzodioxan-2-ylmethyl)piperid-4-yl]-N-(2-methoxyphenyl)methylamine mono-oxalate]	97	94	94	–
–	–	–	Cl.Cl.c1ccc(N2CCC(CNCC3COc4ccccc4O3)CC2)nc1 (single isomer, unassigned; (-)) [Example 19, (-)-N-(1,4-benzodioxan-2-ylmethyl)-1-[1-(pyrid-2-yl)piperid-4-yl]methylamine dihydrochloride]	98	98	96	–
–	–	–	Cl.Cl.c1ccc2c(c1)OCC(CNCC1CCN(c3cccc4c3OCCO4)CC1)O2 (stereo not shown) [Example 13, N-(1,4-benzodioxan-2-ylmethyl)-1-[1-(1,4-benzodioxan-5-yl)piperid-4-yl]methylamine dihydrochloride]	100	93	66	–

Compound	inhibition at 1 µM (5-HT1A receptors; [1]) [%]	Ki (α1-adrenoceptors) [nM]	Ki (α2-adrenoceptors; [2]) [nM]	inhibition at 1 µM (5-HT1A receptors; [3]) [%]	% displacement at 10^-6 M, α1 (α1-adrenoceptors) [%]	inhibition at 1 µM (α2-adrenoceptors; [4]) [%]	other results
N-(7-chloro-1,4-benzodioxan-2-ylmethyl)-1-[1-(2-methoxyphenyl) piperid-4-yl]methylamine and N-(6-chloro-1,4-benzodioxan-2-ylmethyl)-1-[1-(2-methoxyphenyl) piperid-4-yl]methylamine hydrochloride hydrate [Example 26]	–	> 500	> 500	–	–	–	% displacement at 10^-6 M, 5-HT1A (5-HT1A receptors; 10^-6 M, rat hippocampal tissue, [^3 H]8-OH-DPAT): 88%; Ki (D2 dopamine receptors): 82.5 nM
COc1cccc(N2CCC(CNCC3COc4ccccc4O3)CC2)c1 (stereo not shown) [Example 18, N-(1,4-benzodioxan-2-ylmethyl)-1-[1-(3-methoxyphenyl)piperid-4-yl]methylamine hydrochloride]	–	–	242	–	–	–	Ki (5-HT1A receptors; [6]): 7 nM
c1ccc(N2CCC(CNCC3COc4ccccc4O3)CC2)nc1 (single isomer, unassigned; (+)) [Example 20, (+)-N-(1,4-benzodioxan-2-ylmethyl)-1-[1-pyrid-2-yl)piperid-4-yl]methylamine dihydrochloride]	82	–	–	–	94	–	inhibition at 1 µM (α2-adrenoceptors; [5]): 91%
